{
  "source": "patent US20240390400A1",
  "about": "“ENPP1 INHIBITORS AS INHIBITORS OF METASTASIS” (Angarus Therapeutics, Inc., priority 2021, published 2024)",
  "key": {"EMT6 tumor cells": {"system": "EMT6 tumor cells", "assay": "EMT-6 tumor model (tumor volume and lung metastasis)", "assay_type": "in vivo, female Balb/c mice", "procedure": "Test animals were female Balb/c mice aged 5-8 weeks at inoculation.\nThe EMT6 tumor cells were maintained in vitro with DMEM medium supplemented with 10% fetal bovine serum at 37° C. in an atmosphere of 5% CO2 in air. The cells in exponential growth phase were harvested and quantitated by cell counter before tumor inoculation.\nEach mouse was inoculated subcutaneously in the right flank region with EMT6 tumor cells (5×10^5) in 0.1 ml of PBS for tumor development.\nStaggered inoculation was performed. G1, 2, 3, 6, 7 were inoculated one day before G4, 5, 8, 9, 10.\nThe randomization started when the mean tumor size reached approximately 80 (60-110) mm^3. 100 mice were enrolled in the study. All animals were randomly allocated to 10 study groups. Randomization was performed based on “Matched distribution” method (StudyDirector™ software, version 3.1.399.19).\nStaggered randomization was performed. G1, 2, 3, 6, 7 were randomized one day before G4, 5, 8, 9, 10.\nThe date of tumor randomization was denoted as day 0.\nAfter tumor cells inoculation, the animals were checked daily for morbidity and mortality. During routine monitoring, the animals were checked for any effects of tumor growth and treatments on behavior such as mobility, food and water consumption, body weight gain/loss (body weights were measured twice per week after randomization), eye/hair matting and any other abnormalities. Mortality and observed clinical signs were recorded for individual animals in detail.\nTumor volumes were measured twice per week in two dimensions using a caliper, and the volume was expressed in mm^3 using the formula: “V=(L×W×W)/2, where V is tumor volume, L is tumor length (the longest tumor dimension) and W is tumor width (the longest tumor dimension perpendicular to L). (Tumor weight was measured at the end of study). Dosing as well as tumor and body weight measurements were conducted in a Laminar Flow Cabinet.\nThe study was terminated at 4 weeks post randomization. Individual animals were euthanized when TV>3000 mm^3.\nFor comparison between two groups, a Student's t-test was performed. For comparison among three or more groups, an one-way ANOVA was performed followed by multiple comparison procedures. All data were analyzed using SPSS 18.0 and/or GraphPad Prism 5.0. P<0.05 is considered statistically significant.\nAnimals were treated with vehicle, cpd 76, radiotherapy, or anti-PD-L1, or a combination of treatments. Compound 76 was dosed 50 mg/kg and formulated 5 mg/ml in PBS. Radiotherapy used the X-RAD 225Cx SmART Small Animal Radiation Therapy System (Crownbio). Ten animals were in each group and dosing was performed as in Table 4."}, "[1]": {"assay": "Animal weight in 4T1 tumor model study", "assay_type": "in vivo, Mus musculus, BALB/c", "details": "throughout the study; Groups 3 and 4 until Day 21, Groups 1 and 2 until Day 25", "experimental": "All treatment groups were compared to the vehicle control given subcutaneously once a day on Days 7, 8, 9, 14, 15 and 16 (Group 1).\nAt necropsies, animals were weighed, and a final in vivo tumor volume measurement was performed."}},
  "note": "Values joined by “and” are separate entries in the source; they are usually repeats but may differ in a detail not shown here. Identical values can stand only once.",
  "data": [
    {"smiles": "COc1cccc2c(N3CCC(CCP(=O)(O)O)CC3)ncnc12", "note": "[Compound 76]", "values": [
      {"measurement": "effect on tumor growth", "setting": "EMT6 tumor cells; Compound 76 50 mg/kg QD 1-7 combined with IR and aPD-L1 (triple combo)", "result": "synergistic effect"},
      {"measurement": "lung metastasis (animals with metastasis / animals)", "setting": "EMT6 tumor cells; Compound 76 QD 1-7 d combined with aPD-L1 (Groups 9 and 10), study termination day 29", "result": "0/20"},
      {"measurement": "effect on tumor volume / tumor growth", "setting": "EMT6 tumor cells; single agent, Compound 76 50 mg/kg QD 1-7 only or 3 d on/4 d off for 4 weeks, aPD-L1 2.5 mg/kg", "result": "no effect on tumor volume"},
      {"measurement": "lung metastasis (animals with metastasis / animals in group)", "setting": "EMT6 tumor cells; single agent, study termination day 29", "result": "7/10 and 8/10"}
    ]},
    {"smiles": "COc1cccc2c1C(=O)c1c(O)c3c(c(O)c1C2=O)C[C@@](O)(C(=O)CO)C[C@@H]3O[C@H]1C[C@H](N)[C@H](O)[C@H](C)O1", "note": "[doxorubicin, Doxorubicin]", "values": [
      {"measurement": "mean animal weights", "setting": "[1]", "result": "continuously decreased"}
    ]}
  ]
}
